{
  "source": "PubChem BioAssay AID2060624",
  "about": "(Molecular Pharmacology Branch, DTP, NCI, 2025);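 further: spheroids exposed to agents for seven days before reading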;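 on viability, T/C: 100% = DMSO vehicle control viability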",
  "tested_on": "217524-143-R1-J4-PDC spheroids with HUVEC/MSC, viability",
  "assay": "Anticancer human tumor 217524-143-R1-J4-PDC patient-derived pancreatic carcinoma cell line growth inhibition [CLK]",
  "conditions": "for IC50: curve of first compound; for viability, T/C: stronger effect = lower value",
  "method_in_brief": "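Multi-cell-type spheroids combined patient-derived tumor cells with HUVEC endothelial cells and human mesenchymal stem cells. Paired agents were dosed in half-log steps down from about clinical Cmax, or from 10 microM where Cmax was unknown.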",
  "data": [
    {"smiles": "C=CC(=O)Nc1cc(Nc2nccc(-c3cn(C)c4ccccc34)n2)c(OC)cc1N(C)CCN(C)C", "note": "+ CNC(=O)c1ccc(Nc2nc(OC3CCCC3)c3c(-c4ccc5nc(C)oc5c4)c[nH]c3n2)c(OC)c1", "values": [
      {"measurement": "IC50", "setting": "second compound 0.0316 µM", "result": 61.3, "unit": "nM"},
      {"measurement": "IC50", "setting": "second compound 0.1 µM", "result": "< 0.949", "unit": "nM"},
      {"measurement": "IC50", "setting": "second compound 0.316 µM", "result": "< 0.949", "unit": "nM"},
      {"measurement": "IC50", "setting": "second compound 1 µM", "result": "< 0.949", "unit": "nM"},
      {"measurement": "IC50", "setting": "second compound 3.16 µM", "result": "< 0.949", "unit": "nM"},
      {"measurement": "IC50", "setting": "second compound 10 µM", "result": "< 0.949", "unit": "nM"},
      {"measurement": "viability, T/C", "setting": "second compound 0.0316 µM, first compound 0.000949 µM", "result": 92, "unit": "%"},
      {"measurement": "viability, T/C", "setting": "second compound 0.0316 µM, first compound 0.003 µM", "result": 83.9, "unit": "%"},
      {"measurement": "viability, T/C", "setting": "second compound 0.0316 µM, first compound 0.00949 µM", "result": 66.6, "unit": "%"},
      {"measurement": "viability, T/C", "setting": "second compound 0.0316 µM, first compound 0.03 µM", "result": 64.7, "unit": "%"},
      {"measurement": "viability, T/C", "setting": "second compound 0.0316 µM, first compound 0.0949 µM", "result": 41.2, "unit": "%"},
      {"measurement": "viability, T/C", "setting": "second compound 0.0316 µM, first compound 0.3 µM", "result": 31.4, "unit": "%"},
      {"measurement": "viability, T/C", "setting": "second compound 0.1 µM, first compound 0.000949 µM", "result": 47.9, "unit": "%"},
      {"measurement": "viability, T/C", "setting": "second compound 0.1 µM, first compound 0.003 µM", "result": 38.6, "unit": "%"},
      {"measurement": "viability, T/C", "setting": "second compound 0.1 µM, first compound 0.00949 µM", "result": 41.9, "unit": "%"},
      {"measurement": "viability, T/C", "setting": "second compound 0.1 µM, first compound 0.03 µM", "result": 31.2, "unit": "%"},
      {"measurement": "viability, T/C", "setting": "second compound 0.1 µM, first compound 0.0949 µM", "result": 22, "unit": "%"},
      {"measurement": "viability, T/C", "setting": "second compound 0.1 µM, first compound 0.3 µM", "result": 17.1, "unit": "%"},
      {"measurement": "viability, T/C", "setting": "second compound 0.316 µM, first compound 0.000949 µM", "result": 39.3, "unit": "%"},
      {"measurement": "viability, T/C", "setting": "second compound 0.316 µM, first compound 0.003 µM", "result": 39.4, "unit": "%"},
      {"measurement": "viability, T/C", "setting": "second compound 0.316 µM, first compound 0.00949 µM", "result": 34, "unit": "%"},
      {"measurement": "viability, T/C", "setting": "second compound 0.316 µM, first compound 0.03 µM", "result": 28.7, "unit": "%"},
      {"measurement": "viability, T/C", "setting": "second compound 0.316 µM, first compound 0.0949 µM", "result": 16, "unit": "%"},
      {"measurement": "viability, T/C", "setting": "second compound 0.316 µM, first compound 0.3 µM", "result": 16, "unit": "%"},
      {"measurement": "viability, T/C", "setting": "second compound 1 µM, first compound 0.000949 µM", "result": 31.5, "unit": "%"},
      {"measurement": "viability, T/C", "setting": "second compound 1 µM, first compound 0.003 µM", "result": 28.3, "unit": "%"},
      {"measurement": "viability, T/C", "setting": "second compound 1 µM, first compound 0.00949 µM", "result": 25.9, "unit": "%"},
      {"measurement": "viability, T/C", "setting": "second compound 1 µM, first compound 0.03 µM", "result": 18, "unit": "%"},
      {"measurement": "viability, T/C", "setting": "second compound 1 µM, first compound 0.0949 µM", "result": 13.3, "unit": "%"},
      {"measurement": "viability, T/C", "setting": "second compound 1 µM, first compound 0.3 µM", "result": 9.6, "unit": "%"},
      {"measurement": "viability, T/C", "setting": "second compound 3.16 µM, first compound 0.000949 µM", "result": 31.4, "unit": "%"},
      {"measurement": "viability, T/C", "setting": "second compound 3.16 µM, first compound 0.003 µM", "result": 28.3, "unit": "%"},
      {"measurement": "viability, T/C", "setting": "second compound 3.16 µM, first compound 0.00949 µM", "result": 24.9, "unit": "%"},
      {"measurement": "viability, T/C", "setting": "second compound 3.16 µM, first compound 0.03 µM", "result": 19.2, "unit": "%"},
      {"measurement": "viability, T/C", "setting": "second compound 3.16 µM, first compound 0.0949 µM", "result": 12.5, "unit": "%"},
      {"measurement": "viability, T/C", "setting": "second compound 3.16 µM, first compound 0.3 µM", "result": 8.29, "unit": "%"},
      {"measurement": "viability, T/C", "setting": "second compound 10 µM, first compound 0.000949 µM", "result": 26.6, "unit": "%"},
      {"measurement": "viability, T/C", "setting": "second compound 10 µM, first compound 0.003 µM", "result": 22.3, "unit": "%"},
      {"measurement": "viability, T/C", "setting": "second compound 10 µM, first compound 0.00949 µM", "result": 24.7, "unit": "%"},
      {"measurement": "viability, T/C", "setting": "second compound 10 µM, first compound 0.03 µM", "result": 20.1, "unit": "%"},
      {"measurement": "viability, T/C", "setting": "second compound 10 µM, first compound 0.0949 µM", "result": 13, "unit": "%"},
      {"measurement": "viability, T/C", "setting": "second compound 10 µM, first compound 0.3 µM", "result": 9.91, "unit": "%"}
    ]}
  ]
}
